Measured values: PMC3106419 (Bioconjugate chemistry, 2009)

Biological target: T1, human P2Y14 receptor (Homo sapiens, UniProt Q15391)
T1 sequence (Q15391 1-338): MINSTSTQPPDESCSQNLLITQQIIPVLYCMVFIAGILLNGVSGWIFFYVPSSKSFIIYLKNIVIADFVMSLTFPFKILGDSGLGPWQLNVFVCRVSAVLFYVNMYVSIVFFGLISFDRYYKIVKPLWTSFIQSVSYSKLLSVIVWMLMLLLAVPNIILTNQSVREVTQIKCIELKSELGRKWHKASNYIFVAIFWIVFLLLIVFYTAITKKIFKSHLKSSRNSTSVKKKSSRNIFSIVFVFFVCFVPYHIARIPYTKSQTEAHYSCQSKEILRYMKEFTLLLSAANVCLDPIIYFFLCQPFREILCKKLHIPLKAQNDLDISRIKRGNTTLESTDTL
Test: Inhibition of forskolin-stimulated cyclic AMP accumulation in P2Y14-HEK293 cells
Assay type: cell-based
Settings: for relative potency at the P2Y14 receptor: comparator named in the value; for fold more potent than monomer 3a: potency ratio vs ethylenediamine analogue 3a at hP2Y14 receptor; for fold more potent than native agonist UDPG 1: potency ratio vs compound 1 at hP2Y14 receptor

Molecule | relative potency at the P2Y14 receptor | other results
O=C(O)[C@H]1O[C@H](OP(=O)(O)OP(=O)(O)OC[C@H]2O[C@@H](n3ccc(=O)[nH]c3=O)[C@H](O)[C@@H]2O)[C@H](O)[C@@H](O)[C@@H]1O [compound 2, uridine-5′-diphosphoglucuronic acid, reference compound] | approximately equipotent to 1 | –
G2.5-(UDPGA-ethylenediamine)17.3 [compound 10] | – | fold more potent than monomer 3a: more than 800 fold
G3-(UDPGA)4.3 [compound 8] | considerably less potent than 9, but similar in potency to 1 | –
G3-(UDPGA)20.1 [compound 9] | – | fold more potent than native agonist UDPG 1: approximately 100 fold
G3-(UDPGA)20.1-(AlexaFluor488)2.3 [compound 14] | – | fold more potent than native agonist UDPG 1: 7 fold; fold less potent than conjugate 9 (potency ratio vs compound 9 at hP2Y14 receptor): 17 fold
G3-(UDPGA)20.1-(Biotin)4.9 [compound 13] | essentially as potent as 9 | –
G3-(UDPGA)20.1-(DTPA)4.5 [compound 15] | essentially as potent as 9 | –
G5.5-(UDPGA-ethylenediamine)29.9 [compound 11] | – | fold more potent than monomer 3a: more than 800 fold
G6-(UDPGA)147 [compound 12] | significantly more potent than 9 | –
UDPGA-ethylenediamine [3a] | considerably less potent | –
